What was measured:
[1] = tested on: collagen VII in a culture of normal human keratinocytes; assay: ELISA of collagen VII in supernatants of normal human keratinocyte cultures; type: cell-based; settings: ellagic acid 0.5 μg/ml; for RODC for 72 h of incubation: reduced optical density corrected to 100 μg cellular proteins; for A for 72 h of incubation (activity on the proportion of collagen VII): relative to control culture
[2] = tested on: normal human keratinocytes; assay: XTT viability test and microscopic observation of the cells; type: cell-based; settings: test concentration 0.5 μg per ml; plate treated in parallel
Protocol: The cells are inoculated in a 96-well culture plate at a rate of 25,000 NHK per well in SFMc. After incubation for 24 h, which is necessary for good adhesion of the cells, the medium is replaced with SFMc diluted to 2% to limit the proliferation of the keratinocytes during the test. The test concentration of ellagic acid is 0.5 microgram per ml of test medium, which is obtained immediately beforehand from a stock solution containing 0.5 mg of ellagic acid per ml of DMSO. The final concentration of DMSO in the test medium is therefore 0.1% V/Vfinal. This concentration is not toxic to the cells. The control consists of SFMc test medium diluted to 2%, to which 0.1% V/V of DMSO has been added. Six cultures are prepared for the test product and six for the control experiment.
A plate treated in parallel is used for the XTT viability test with the XTT kit from Boehringer, reference 146 50 15, in order to measure the mitochondrial dehydrogenase activity of the viable cells.

O=c1oc2c(O)c(O)cc3c(=O)oc4c(O)c(O)cc1c4c23 [Ellagic acid, 2,3,7,8-tetrahydroxy(1)-benzopyrano-pyrano (5,4,3-cde)(1)benzopyran-5,10-dione]
RODC for 72 h of incubation ([1]; NHK 1106P1 (face-lift)): 1.563 ± 0.240 | A for 72 h of incubation (activity on the proportion of collagen VII) ([1]; NHK 1106P1 (face-lift)): +64% | RODC for 72 h of incubation ([1]; NHK 1124P2 (face-lift)): 1.098 ± 0.100 | A for 72 h of incubation (activity on the proportion of collagen VII) ([1]; NHK 1124P2 (face-lift)): +42% | proportion of collagen VII present in the culture media ([1]; both strains): large and significant increase | viability (mitochondrial dehydrogenase activity of viable cells, XTT; microscopic observation) [2]: No significant drop in viability
